# Results reported in PMC5578959, “Selective LRRK2 kinase inhibition reduces phosphorylation of endogenous Rab10 and Rab12 in human peripheral mononuclear blood cells” (Scientific Reports, 2017).
# What was measured:
# [1] = system: Rab10-pThr73; test: Western Blot, HEK293 cells co-expressing HA-Rab10 and LRRK2 variants; type: cell-based, human; conditions: 100 nM; HEK293 co-overexpressing HA-Rab10 and LRRK2 WT, G2019S or R1441C
# Description: Plasmids encoding various LRRK2 and Rab GTPase protein variants were transiently expressed in HEK293 cells using Lipofectamine®2000 according to the manufacturer’s instructions (Thermo Fisher Scientific, US).
# HEK293 cells were plated at a density of 1 × 10^6 cells/well in 6-well plates pre-coated for 1 hr at 37 °C with poly-L-lysin. Subsequent to the transient transfection HEK293 cells were harvested using 1 mL cold Phosphate Buffered Saline (PBS) buffer (Invitrogen, California, US) and subsequently centrifuged at 800 g for 2 minutes. Cell pellets were resuspended and solubilized in 100 µL lysis buffer (50 mM Tris hydrochloride, 1 mM magnesium chloride, 1% Triton, 0.1% sodium dodecyl sulfate (SDS), pH 8.0) on ice for 20 minutes and then centrifuged at 20,000 g for 30 minutes at 4 °C. The solubilized crude cell lysate was size mobility separated by SDS-polyacrylamide gel electrophoresis (SDS-PAGE). LRRK2 was separated on a 3–8% Tris-Acetate gel (NuPAGE® Tris-Acetate Mini Gels, Life Technologies, Paisley, UK) and Rab10 and Rab12 were separated using a NuPAGE® Novex 4–12% Bis-Tris Gel (Invitrogen, California, US). An amount of 10 µg total protein was loaded in each well. Proteins were transferred to immobilon-FL PVDF membranes (Millipore, Billerica, US).
# [2] = system: T1, JAK2 domain2; test: KiNativ profiling in human PBMCs; type: binding; conditions: Activation Loop
# T1 construct: JAK2 domain2; purchased ActivX Technologies (KiNativ)
# Procedure, shortened: (§1)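 Cellular kinase profiling (KiNativ) was run on peripheral blood mononuclear cells incubated live with compound, tested at 1 µM and 0.1 µM.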
# [3] = system: MARK3,MARK4,QIK; test: KiNativ profiling in human PBMCs; type: binding; conditions: Lys1
# Procedure, shortened: as §1
# [4] = system: SGK,SGK2,SGK3; test: KiNativ profiling in human PBMCs; type: binding; conditions: Lys1
# Procedure, shortened: as §1
# [5] = system: AMPKa1,AMPKa2; test: KiNativ profiling in human PBMCs; type: binding
# Procedure, shortened: as §1
# [6] = system: T2, AMPKa1; test: KiNativ profiling in human PBMCs; type: binding; conditions: ATP Loop
# T2 construct: purchased ActivX Technologies (KiNativ)
# Procedure, shortened: as §1
# [7] = system: T3, MAPKAPK3; test: KiNativ profiling in human PBMCs; type: binding; conditions: ATP Loop
# T3 construct: purchased ActivX Technologies (KiNativ)
# Procedure, shortened: as §1
# [8] = system: T4, ATR; test: KiNativ profiling in human PBMCs; type: binding; conditions: ATP
# T4 construct: purchased ActivX Technologies (KiNativ)
# [9] = system: T5, CASK; test: KiNativ profiling in human PBMCs; type: binding; conditions: Lys1
# T5 construct: purchased ActivX Technologies (KiNativ)
# [10] = system: T6, CDK9; test: KiNativ profiling in human PBMCs; type: binding; conditions: Lys2
# T6 construct: purchased ActivX Technologies (KiNativ)
# [11] = system: T7, CK1a; test: KiNativ profiling in human PBMCs; type: binding; conditions: Lys2
# T7 construct: purchased ActivX Technologies (KiNativ)
# [12] = system: T8, CK2a1; test: KiNativ profiling in human PBMCs; type: binding; conditions: Protein Kinase Domain
# T8 construct: purchased ActivX Technologies (KiNativ)
# [13] = system: T9, CLK3; test: KiNativ profiling in human PBMCs; type: binding; conditions: ATP Loop
# T9 construct: purchased ActivX Technologies (KiNativ)
# [14] = system: T10, EphA1; test: KiNativ profiling in human PBMCs; type: binding; conditions: Activation Loop
# T10 construct: purchased ActivX Technologies (KiNativ)
# [15] = system: T11, FAK; test: KiNativ profiling in human PBMCs; type: binding; conditions: Activation Loop
# T11 construct: purchased ActivX Technologies (KiNativ)
# [16] = system: T12, GPRK5; test: KiNativ profiling in human PBMCs; type: binding; conditions: Lys2
# T12 construct: purchased ActivX Technologies (KiNativ)
# [17] = system: T13, ITK; test: KiNativ profiling in human PBMCs; type: binding; conditions: Activation Loop
# T13 construct: purchased ActivX Technologies (KiNativ)
# [18] = system: T14, MAP3K3; test: KiNativ profiling in human PBMCs; type: binding; conditions: Lys1
# T14 construct: purchased ActivX Technologies (KiNativ)
# [19] = system: T15, MARK4; test: KiNativ profiling in human PBMCs; type: binding; conditions: Lys2
# T15 construct: purchased ActivX Technologies (KiNativ)
# [20] = system: T16, MST4; test: KiNativ profiling in human PBMCs; type: binding; conditions: Lys1
# T16 construct: purchased ActivX Technologies (KiNativ)
# [21] = system: T17, NEK3; test: KiNativ profiling in human PBMCs; type: binding; conditions: Activation Loop
# T17 construct: purchased ActivX Technologies (KiNativ)
# [22] = system: T18, p70S6Kb; test: KiNativ profiling in human PBMCs; type: binding; conditions: Lys2
# T18 construct: purchased ActivX Technologies (KiNativ)
# [23] = system: PCTAIRE2, PCTAIRE3; test: KiNativ profiling in human PBMCs; type: binding; conditions: Lys1
# [24] = system: T19, PEK; test: KiNativ profiling in human PBMCs; type: binding; conditions: Lys2
# T19 construct: purchased ActivX Technologies (KiNativ)
# [25] = system: T20, PHKg2; test: KiNativ profiling in human PBMCs; type: binding; conditions: Lys1
# T20 construct: purchased ActivX Technologies (KiNativ)
# [26] = system: PI4KA, PI4KAP2; test: KiNativ profiling in human PBMCs; type: binding; conditions: ATP
# [27] = system: PKD1, PKD2; test: KiNativ profiling in human PBMCs; type: binding; conditions: Lys2
# [28] = system: T21, PKN2; test: KiNativ profiling in human PBMCs; type: binding; conditions: Lys2
# T21 construct: purchased ActivX Technologies (KiNativ)
# [29] = system: ROCK1, ROCK2; test: KiNativ profiling in human PBMCs; type: binding; conditions: Lys2
# [30] = system: T22, TEC; test: KiNativ profiling in human PBMCs; type: binding; conditions: Activation Loop
# T22 construct: purchased ActivX Technologies (KiNativ)
structure (smiles),measurement,setting,value
Cc1cccc(-c2cc(Nc3ccn(C)n3)nc3[nH]cc(C#N)c23)c1 [Lu AF58786],phosphorylation of Rab10 (pThr73),[1],no phosphorylation
same,Inhibition,[2]; 0.1µM,16.1%
same,Inhibition,[2]; 1µM,-3.5%
same,Inhibition,[3]; 0.1µM,3.0%
same,Inhibition,[3]; 1µM,5.7%
same,Inhibition,[4]; 0.1µM,7.0%
same,Inhibition,[4]; 1µM,0.243%
Cn1cc(-c2c[nH]c3ncnc(N4CCOCC4)c23)cc1C#N [PFE-360],% Inhibition,"[5]; 0.1µM, Lys1",0.8%
same,% Inhibition,"[5]; 0.1µM, Lys2",-17.7%
same,% Inhibition,"[5]; 1µM, Lys1",-2.7%
same,% Inhibition,"[5]; 1µM, Lys2",7.4%
same,% Inhibition,[6]; 0.1µM,-1%
same,% Inhibition,[6]; 1µM,4%
same,% Inhibition,[7]; 0.1µM,-5.1%
same,% Inhibition,[7]; 1µM,-8.3%
same,% Inhibition,[8]; 0.1µM,-25.8%
same,% Inhibition,[8]; 1µM,10.7%
same,% Inhibition,[9]; 0.1µM,4.6%
same,% Inhibition,[9]; 1µM,8.6%
same,% Inhibition,[10]; 0.1µM,-8.9%
same,% Inhibition,[10]; 1µM,-4.4%
same,% Inhibition,[11]; 0.1µM,-17.4%
same,% Inhibition,[11]; 1µM,4.6%
same,% Inhibition,[12]; 0.1µM,-27.7%
same,% Inhibition,[12]; 1µM,-26.5%
same,% Inhibition,[13]; 0.1µM,3.8%
same,% Inhibition,[13]; 1µM,-6.8%
same,% Inhibition,[14]; 0.1µM,-12.8%
same,% Inhibition,[14]; 1µM,-26.9%
same,% Inhibition,[15]; 0.1µM,2.6%
same,% Inhibition,[15]; 1µM,26.4%
same,% Inhibition,[16]; 0.1µM,19.3%
same,% Inhibition,[16]; 1µM,1.5%
same,% Inhibition,[17]; 0.1µM,3.5%
same,% Inhibition,[17]; 1µM,-4.7%
same,% Inhibition,[18]; 0.1µM,18.3%
same,% Inhibition,[18]; 1µM,16.1%
same,% Inhibition,[19]; 0.1µM,14.8%
same,% Inhibition,[19]; 1µM,-6.1%
same,% Inhibition,[20]; 0.1µM,-26.3%
same,% Inhibition,[20]; 1µM,-30%
same,% Inhibition,[21]; 0.1µM,-10.8%
same,% Inhibition,[21]; 1µM,1.2%
same,% Inhibition,[22]; 0.1µM,-6.9%
same,% Inhibition,[22]; 1µM,10.8%
same,% Inhibition,[23]; 0.1µM,-34%
same,% Inhibition,[23]; 1µM,11.6%
same,% Inhibition,[24]; 0.1µM,10.6%
same,% Inhibition,[24]; 1µM,17.3%
same,% Inhibition,[25]; 0.1µM,-21.5%
same,% Inhibition,[25]; 1µM,-15.8%
same,% Inhibition,[26]; 0.1µM,-6%
same,% Inhibition,[26]; 1µM,4.4%
same,% Inhibition,[27]; 0.1µM,13.1%
same,% Inhibition,[27]; 1µM,-5.9%
same,% Inhibition,[28]; 0.1µM,-3%
same,% Inhibition,[28]; 1µM,-20%
same,% Inhibition,[29]; 0.1µM,-31.8%
same,% Inhibition,[29]; 1µM,-10.7%
same,% Inhibition,[30]; 0.1µM,-3.8%
same,% Inhibition,[30]; 1µM,9.2%
